Reference: patent US20100076015A1, “Aminopyridine Derivatives” (VANTIA LIMITED, priority 2008, published 2010)

Columns and labels:
Assay type in all cases: biochemical
plasma kallikrein = plasma kallikrein (Homo sapiens, UniProt P03952); assay: Enzyme selectivity: plasma kallikrein (chromogenic substrate S-2302); conditions: chromogenic substrate S-2302, 37° C.
Description: (§1) Determination of Enzyme Selectivity
(§2) Selected compounds were further screened for inhibitory activity against other trypsin-like serine proteases using the appropriate enzyme and chromogenic substrate (Chromogenix AB). The activity against the following human enzymes was tested (substrate in brackets):—plasma kallikrein (S-2302), thrombin (S-2238), plasmin (S-2390) and trypsin (S-2222). The enzyme was incubated at 37° C. with the chromogenic substrate. Residual enzyme activity (initial rate of reaction) was determined by measuring the change in optical absorbance at 405 nm.

trypsin = assay: Enzyme selectivity: trypsin (chromogenic substrate S-2222); conditions: human enzyme, chromogenic substrate S-2222, 37° C.
Description: as §1, §2

Human KLK1 = target: T1, Human KLK1 (Homo sapiens, UniProt P06870); assay: Determination of the IC50 for KLK1 (fluorogenic substrate H-DVal-Leu-Arg-AFC); conditions: 37° C.
T1 construct: purchased Callbiochem (Calbiochem)
Method in brief: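 Human KLK1 incubated at 37 °C with fluorogenic substrate H-DVal-Leu-Arg-AFC and a range of test compound concentrations. Residual activity was taken as initial reaction rate from absorbance change at 410 nm, and the IC50 derived from it.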

plasmin = plasmin (Homo sapiens, UniProt P00747); assay: Enzyme selectivity: plasmin (chromogenic substrate S-2390); conditions: chromogenic substrate S-2390, 37° C.
Description: as §1, §2

thrombin = thrombin (Homo sapiens, UniProt P00734); assay: Enzyme selectivity: thrombin (chromogenic substrate S-2238); conditions: chromogenic substrate S-2238, 37° C.
Description: as §1, §2

plasma kallikrein, sequence (P03952 20-638): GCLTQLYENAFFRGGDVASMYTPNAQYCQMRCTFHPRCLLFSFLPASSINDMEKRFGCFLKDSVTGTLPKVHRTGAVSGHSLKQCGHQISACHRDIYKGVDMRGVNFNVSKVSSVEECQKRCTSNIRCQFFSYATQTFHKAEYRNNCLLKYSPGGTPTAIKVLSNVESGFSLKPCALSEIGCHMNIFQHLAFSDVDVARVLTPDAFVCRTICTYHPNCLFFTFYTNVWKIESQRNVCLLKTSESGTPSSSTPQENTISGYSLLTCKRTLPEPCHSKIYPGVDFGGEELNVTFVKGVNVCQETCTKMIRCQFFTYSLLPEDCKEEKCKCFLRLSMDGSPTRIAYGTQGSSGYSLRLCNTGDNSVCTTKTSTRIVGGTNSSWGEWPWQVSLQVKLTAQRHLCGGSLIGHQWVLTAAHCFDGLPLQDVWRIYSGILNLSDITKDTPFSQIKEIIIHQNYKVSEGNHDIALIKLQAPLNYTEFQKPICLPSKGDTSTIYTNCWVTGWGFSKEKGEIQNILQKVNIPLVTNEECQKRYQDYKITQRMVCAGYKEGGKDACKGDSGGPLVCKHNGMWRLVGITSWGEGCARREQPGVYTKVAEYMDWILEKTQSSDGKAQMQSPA
plasmin, sequence (P00747 581-810 limits assumed): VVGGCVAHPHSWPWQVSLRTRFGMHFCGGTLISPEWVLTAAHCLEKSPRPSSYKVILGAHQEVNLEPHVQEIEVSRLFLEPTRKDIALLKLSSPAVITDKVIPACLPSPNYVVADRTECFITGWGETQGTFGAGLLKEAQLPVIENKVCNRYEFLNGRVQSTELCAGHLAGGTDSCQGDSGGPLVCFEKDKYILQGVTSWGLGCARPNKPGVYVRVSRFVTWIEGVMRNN
plasmin, sequence (P00747 97-580 partner limits assumed): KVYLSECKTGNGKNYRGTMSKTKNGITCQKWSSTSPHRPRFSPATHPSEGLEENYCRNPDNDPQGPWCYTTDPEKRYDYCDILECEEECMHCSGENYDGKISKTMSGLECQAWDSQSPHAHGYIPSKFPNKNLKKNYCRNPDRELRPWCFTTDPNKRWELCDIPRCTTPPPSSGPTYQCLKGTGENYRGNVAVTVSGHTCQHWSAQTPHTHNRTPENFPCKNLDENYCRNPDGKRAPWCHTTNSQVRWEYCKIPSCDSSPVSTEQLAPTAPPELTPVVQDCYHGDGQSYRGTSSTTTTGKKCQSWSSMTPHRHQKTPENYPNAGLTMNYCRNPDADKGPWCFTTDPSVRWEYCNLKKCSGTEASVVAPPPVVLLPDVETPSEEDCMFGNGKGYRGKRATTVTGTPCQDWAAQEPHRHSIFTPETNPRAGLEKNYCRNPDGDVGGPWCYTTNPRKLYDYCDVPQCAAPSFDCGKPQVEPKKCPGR
T1 sequence (P06870 25-262): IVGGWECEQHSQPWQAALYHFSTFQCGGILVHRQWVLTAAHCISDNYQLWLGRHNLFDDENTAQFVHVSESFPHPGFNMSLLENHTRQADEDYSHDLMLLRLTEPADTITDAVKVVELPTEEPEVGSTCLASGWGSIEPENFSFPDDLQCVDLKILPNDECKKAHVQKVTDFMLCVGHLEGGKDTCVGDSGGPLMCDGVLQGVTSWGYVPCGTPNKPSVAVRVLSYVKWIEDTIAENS

| Molecule | IC50 (plasma kallikrein) [µM] | IC50 (trypsin) [µM] | IC50 (Human KLK1) [nM] | IC50 (plasmin) [µM] | IC50 (thrombin) [µM] |
| --- | --- | --- | --- | --- | --- |
| CCC(C)[C@@H](N)C(=O)N[C@@H](Cc1cccc2ccccc12)C(=O)NCc1ccc(N)nc1 (stereo partly drawn) [Example 1, (R)-2-Amino-3-methyl-pentanoic acid {(S)-1-[(6-amino-pyridin-3-ylmethyl)-carbamoyl]-2-naphthalen-1-yl-ethyl}-amide] | > 10 | > 10 | 0.96 | > 10 | > 10 |
| CCC(C)[C@@H](N)C(=O)N[C@@H](CC1CCCC2CCCCC21)C(=O)NCc1ccc(N)nc1 (stereo partly drawn) [Example 2, (R)-2-Amino-3-methyl-pentanoic acid [(S)-1-[(6-amino-pyridin-3-ylmethyl)-carbamoyl]-2-(decahydro-naphthalen-1-yl)-ethyl]-amide] | > 10 | > 10 | 1 | > 10 | > 10 |
| CCC(C)[C@@H](NC)C(=O)N[C@@H](Cc1ccc(Cl)c(Cl)c1)C(=O)NCc1ccc(N)nc1 (stereo partly drawn) [Example 3, (R)-3-Methyl-2-methylamino-pentanoic acid [(S)-1-[(6-amino-pyridin-3-ylmethyl)-carbamoyl]-2-(3,4-dichloro-phenyl)-ethyl]-amide] | > 10 | > 10 | 0.22 | > 10 | > 10 |
| Nc1ccc(CNC(=O)[C@H](Cc2ccc(Cl)c(Cl)c2)NC(=O)[C@H]2CCCN2)cn1 [Example 4, (R)-Pyrrolidine-2-carboxylic acid [(S)-1-[(6-amino-pyridin-3-ylmethyl)-carbamoyl]-2-(3,4-dichloro-phenyl)-ethyl]-amide] | > 10 | > 10 |  | > 10 | > 10 |
| CN1CCC[C@@H]1C(=O)N[C@@H](Cc1ccc(F)c(F)c1)C(=O)NCc1ccc(N)nc1 [Example 5, (R)-1-Methyl-pyrrolidine-2-carboxylic acid [(S)-1-[(6-amino-pyridin-3-ylmethyl)-carbamoyl]-2-(3,4-difluoro-phenyl)-ethyl]-amide] | > 10 | > 10 | 1.3 | > 10 | > 10 |
| CCC(C)[C@H](N)C(=O)N[C@@H](C(=O)NCc1ccc(N)nc1)C(C1CCCCC1)C1CCCCC1 (stereo partly drawn) [Example 11, (S)-2-Amino-3-methyl-pentanoic acid [(R)-1-[(6-amino-pyridin-3-ylmethyl)-carbamoyl]-2,2-dicyclohexyl-ethyl]-amide] | > 10 | > 10 | 4.9 | > 10 | > 10 |
| Nc1ccc(CNC(=O)[C@H](CC2CCCC3CCCCC32)NC(=O)[C@H](N)Cc2ccc(Cl)cc2)cn1 (stereo partly drawn) [Example 13, (R)-2-Amino-N-[(S)-1-[(6-amino-pyridin-3-ylmethyl)carbamoyl]-2-(decahydro-naphthalen-1-yl)-ethyl]-3-(4-chloro-phenyl)-propionamide] | > 10 | > 10 | 9.8 | > 10 | > 10 |
| CCC(C)[C@@H](N)C(=O)N[C@@H](CC1CCCCC1)C(=O)NCc1ccc(N)nc1 (stereo partly drawn) [Example 20, (R)-2-Amino-3-methyl-pentanoic acid {(S)-1-[(6-amino-pyridin-3-ylmethyl)-carbamoyl]-2-cyclohexyl-ethyl}-amide] | > 10 | > 10 | 4.3 | > 10 | > 10 |
| CCC(C)[C@@H](N)C(=O)N[C@@H](Cc1ccccc1C(F)(F)F)C(=O)NCc1ccc(N)nc1 (stereo partly drawn) [Example 25, (R)-2-Amino-3-methyl-pentanoic acid [(S)-1-[(6-amino-pyridin-3-ylmethyl)-carbamoyl]-2-(2-trifluoromethyl-phenyl)-ethyl]-amide] | > 10 | > 10 | 9.8 | > 10 | > 10 |
| CCC(C)[C@@H](N)C(=O)N[C@@H](Cc1ccccc1)C(=O)NCc1ccc(N)nc1 (stereo partly drawn) [Example 26, (R)-2-Amino-3-methyl-pentanoic acid {(S)-1-[(6-amino-pyridin-3-ylmethyl)-carbamoyl]-2-phenyl-ethyl}-amide] | > 10 | > 10 | 20.5 | > 10 | > 10 |
| CCC(C)[C@@H](N)C(=O)N[C@@H](Cc1cccc(C)c1)C(=O)NCc1ccc(N)nc1 (stereo partly drawn) [Example 27, (R)-2-Amino-3-methyl-pentanoic acid {(S)-1-[(6-amino-pyridin-3-ylmethyl)-carbamoyl]-2-m-tolyl-ethyl}-amide] | > 10 | > 10 | 2.5 | > 10 | > 10 |
| (R)—N-[(S)-1-[(6-Amino-pyridin-3-ylmethyl)-carbamoyl]-2-(3,4-dichloro-phenyl)-ethyl]-3-methyl-2-methylamino-butyramide [Example 340] |  |  | 0.38 |  |  |
| (S)—N-{(R)-1-[(6-Amino-pyridin-3-ylmethyl)-carbamoyl]-2,2-dicyclohexyl-ethyl}-2-dimethylamino-propionamide [Example 434] |  |  | 43.9 |  |  |

Continued, values first:

| IC50 (plasma kallikrein) [µM] | IC50 (trypsin) [µM] | IC50 (Human KLK1) [nM] | IC50 (plasmin) [µM] | IC50 (thrombin) [µM] | Molecule |
| --- | --- | --- | --- | --- | --- |
| > 10 | > 10 | 10.2 | > 10 | > 10 | CCC(C)[C@@H](N)C(=O)N[C@@H](Cc1cccc(F)c1)C(=O)NCc1ccc(N)nc1 (stereo partly drawn) [Example 29, (R)-2-Amino-3-methyl-pentanoic acid [(S)-1-[(6-amino-pyridin-3-ylmethyl)-carbamoyl]-2-(3-fluoro-phenyl)-ethyl]-amide] |
| > 10 | > 10 | 1.1 | > 10 | > 10 | CCC(C)[C@@H](N)C(=O)N[C@@H](Cc1cccc(C(F)(F)F)c1)C(=O)NCc1ccc(N)nc1 (stereo partly drawn) [Example 30, (R)-2-Amino-3-methyl-pentanoic acid [(S)-1-[(6-amino-pyridin-3-ylmethyl)-carbamoyl]-2-(3-trifluoromethyl-phenyl)-ethyl]-amide] |
| > 10 | > 10 | 0.29 | > 10 | > 10 | Nc1ccc(CNC(=O)[C@H](Cc2ccc(Cl)c(Cl)c2)NC(=O)[C@H](N)Cc2ccccc2)cn1 [Example 54, (R)-2-Amino-N-[(S)-1-[(6-amino-pyridin-3-ylmethyl)-carbamoyl]-2-(3,4-dichloro-phenyl)-ethyl]-3-phenyl-propionamide] |
| > 10 | > 10 | 0.56 | > 10 | > 10 | Nc1ccc(CNC(=O)[C@H](Cc2ccc(Cl)c(Cl)c2)NC(=O)[C@H](N)Cc2ccc(Cl)cc2)cn1 [Example 59, (R)-2-Amino-N-[(S)-1-[(6-amino-pyridin-3-ylmethyl)-carbamoyl]-2-(3,4-dichloro-phenyl)-ethyl]-3-(4-chloro-phenyl)-propionamide] |
| > 10 | > 10 | 0.71 | > 10 | > 10 | CN[C@H](Cc1ccccc1)C(=O)N[C@@H](Cc1ccc(Cl)c(Cl)c1)C(=O)NCc1ccc(N)nc1 [Example 60, (R)—N-[(S)-1-[(6-Amino-pyridin-3-ylmethyl)-carbamoyl]-2-(3,4-dichloro-phenyl)-ethyl]-2-methylamino-3-phenyl-propionamide] |
| > 10 | > 10 | 0.4 | > 10 | > 10 | CC(C)(C)[C@@H](N)C(=O)N[C@@H](Cc1ccc(Cl)c(Cl)c1)C(=O)NCc1ccc(N)nc1 [Example 61, (R)-2-Amino-N-[(S)-1-[(6-amino-pyridin-3-ylmethyl)-carbamoyl]-2-(3,4-dichloro-phenyl)-ethyl]-3,3-dimethyl-butyramide] |
| > 10 | > 10 | 2.4 | > 10 | > 10 | CN[C@H](C)C(=O)N[C@@H](Cc1ccc(Cl)c(Cl)c1)C(=O)NCc1ccc(N)nc1 [Example 62, (R)—N-[(S)-1-[(6-Amino-pyridin-3-ylmethyl)-carbamoyl]-2-(3,4-dichloro-phenyl)-ethyl]-2-methylamino-propionamide] |
| > 10 | > 10 | 0.86 | > 10 | > 10 | CN1CCC[C@@H]1C(=O)N[C@@H](Cc1ccc(Cl)c(Cl)c1)C(=O)NCc1ccc(N)nc1 [Example 90, (R)-1-Methyl-pyrrolidine-2-carboxylic acid [(S)-1-[(6-amino-pyridin-3-ylmethyl)-carbamoyl]-2-(3,4-dichloro-phenyl)-ethyl]-amide] |
| > 10 | > 10 | 2.1 | > 10 | > 10 | CN1CCC[C@@H]1C(=O)N[C@@H](Cc1cccc(C(F)(F)F)c1)C(=O)NCc1ccc(N)nc1 [Example 91, (R)-1-Methyl-pyrrolidine-2-carboxylic acid [(S)-1-[(6-amino-pyridin-3-ylmethyl)-carbamoyl]-2-(3-trifluoromethyl-phenyl)-ethyl]-amide] |
|  |  | 5.4 |  |  | CCN(CC)C(C)C(=O)N(C)C(CC1CCCCC1)C(=O)NCc1ccc(N)nc1 [Example 438, S)—N-{(S)-1-[(6-Amino-pyridin-3-ylmethyl)-carbamoyl]-2-cyclohexyl-ethyl}-2-diethylamino-N-methyl-propionamide] |
